Assay results published in patent US20090197948A1, “Skin External Preparation” (Shiseido Co., Ltd., priority 2006, published 2009).

System: skin of the forearms of 10 panelists (stratum corneum)
Assay: Testing by Conductance Measurement (rate of skin conductance change)
Type: in vivo, human
Settings: for conductance evaluation, 30 minutes / conductance evaluation, 60 minutes / conductance evaluation, 120 minutes: Table 1, 10% aqueous solution; for conductance evaluation, 30 minutes: 30 minutes after application; for conductance evaluation, 60 minutes: 60 minutes after application; for conductance evaluation, 120 minutes: 120 minutes after application
Protocol: “Testing by Conductance Measurement” The skin conductance was measured before the application and after 30 minutes, 60 minutes, and 120 minutes of the application on the forearms of 10 panelists. From the rate of change, the moisturizing effect was evaluated. The rate of change of the skin conductance is determined by the following equation (III), and the influences on the water-absorbing property and the moisture-retention ability of the stratum corneum can be investigated. If the rate of change is small, it can be estimated that there is an increase in the water content in the stratum corneum and that the moisturizing effect is high. Rate of conductance change=(conductance before application)/(conductance after application) Equation (III) The evaluation criteria for the “Testing by Conductance Measurement” are as follows. ⊚: Average of the rate of conductance change of 10 panelists: 0 or higher and lower than 0.1 ◯: Average of the rate of conductance change of 10 panelists: 0.1 or higher and lower than 0.2 Δ: Average of the rate of conductance change of 10 panelists: 0.2 or higher and lower than 0.5 X: Average of the rate of conductance change of 10 panelists: 0.5 or higher Initially, the present inventors evaluated the conductance, based on the above-described criteria, for respective 10% aqueous solutions of various moisturizers.

Row | SMILES | conductance evaluation, 30 minutes | conductance evaluation, 60 minutes | conductance evaluation, 120 minutes | Conductance measurement evaluation (Table 7, 5 % alone in ion exchanged water 95 %)
1 | OCC(O)CO [glycerin] | ⊚ (Average of the rate of conductance change of 10 panelists: 0 or higher and lower than 0.1) | ◯ (Average of the rate of conductance change of 10 panelists: 0.1 or higher and lower than 0.2) | ◯ (Average of the rate of conductance change of 10 panelists: 0.1 or higher and lower than 0.2) | Δ (Average of the rate of conductance change of 10 panelists: 0.2 or higher and lower than 0.5)
2 | CC(O)CCO (stereo not shown) [1,3-butylene glycol] | Δ (Average of the rate of conductance change of 10 panelists: 0.2 or higher and lower than 0.5) | Δ (Average of the rate of conductance change of 10 panelists: 0.2 or higher and lower than 0.5) | Δ (Average of the rate of conductance change of 10 panelists: 0.2 or higher and lower than 0.5) | –
